Reference: US12680078B2, “Differentiation of pluripotent stem cells and cardiac progenitor cells into striated cardiomyocyte fibers using laminins LN-511, LN-521 and LN-221” (National University of Singapore, priority 2013, dated 2026)
Where a name gives a salt, the structure may show the parent alone. Read-outs that look alike come from different tables or passages of the source.

How the values were obtained:
cardiomyocytes [1] = assay: Cell viability assay (ATP content) on hESC-derived cardiomyocytes; assay type: cell-based; conditions: Homo sapiens, Cardiomyocyte, read-out: EC50 (cell viability, ATP content)
Method: FIG. 12G is a graph showing ATP content (relative light units×1000) versus log concentration of valinomycin. The y-axis runs from 0 to 5 in increments of 1. The x-axis runs from −7 to −3 in increments of 1.
FIG. 12H is a graph showing ATP content (relative light units×1000) versus log concentration of emetine dihydrochloride. The y-axis runs from 0 to 6 in increments of 2. The x-axis runs from −8 to −3 in increments of 1.
(§1) Cellular responses to adrenergic stimulation were also tested with MEA.

cardiomyocytes [2] = assay: Multi-electrode assay (MEA) of cellular responses to adrenergic stimulation; assay type: cell-based, human; conditions: upon exposure
Method: To further characterize the functionality of the cardiomyocytes, single cell patch clamp and multi-electrode assay (MEA) were utilized to measure their action potential. 13.60% mimicked the nodal subtype, 22.20% mimicked the atrial subtype, and 64.20% mimicked the heart ventricle subtype (see FIG. 8(C)).
as §1

CC(C)[C@@H]1NC(=O)[C@H](C)OC(=O)[C@@H](C(C)C)NC(=O)[C@@H](C(C)C)OC(=O)[C@H](C(C)C)NC(=O)[C@H](C)OC(=O)[C@@H](C(C)C)NC(=O)[C@@H](C(C)C)OC(=O)[C@H](C(C)C)NC(=O)[C@H](C)OC(=O)[C@@H](C(C)C)NC(=O)[C@@H](C(C)C)OC1=O [valinomycin]
EC50 (cardiomyocytes [1]): 13.1 µM

CC[C@H]1CN2CCc3cc(OC)c(OC)cc3[C@@H]2C[C@@H]1C[C@H]1NCCc2cc(OC)c(OC)cc21 [emetine dihydrochloride]
EC50 (cardiomyocytes [1]; hESC-derived cardiomyocytes, FIG. 12G/12H): 6.08 µM

CC(C)NCC(O)c1ccc(O)c(O)c1 (stereo not shown) [isoproterenol]
heart rate (cardiomyocytes [2]): increased heart rate

CC(C)NCC(O)c1ccc(NS(C)(=O)=O)cc1 (stereo not shown) [Sotalol]
corrected field potential duration (cFPD) (cardiomyocytes [2]): shortened corrected field potential duration (cFPD)
